Assay results taken from patent US11725173B2, “Highly efficient organoid culture device and system” (CELLARTGEN INC., priority 2018, dated 2023).

Tests used:
Format in all cases: cell-based
liver organoid [1] = assay: Toxicity test of liver organoid under drug concentration gradient (syringe pump and mixing channel); details: cultured 48 hours under gradient formed from 50 mM APAP medium and medium containing no APAP
liver organoid [2] = assay: GSH and ROS distribution by monochlorobimane (mBCL) and dihydroethidium (DHE) assay in liver organoid; details: liver organoid of the THE-F group, APAP 2 to 50 mM
albumin gene = assay: Albumin gene expression in liver organoid cultured alone or co-cultured with intestine organoid, bile acid in culture medium; details: all conditions (liver organoid alone or co-cultured with intestine organoid); compared with DMSO control
Experimental: (§1) Co-culture of the induced liver organoid and the adult stem cell-derived intestine organoid was performed, and the interaction between the two organoids was analyzed.

CYP7A1 = CYP7A1 gene expression in liver organoid cultured alone or co-cultured with intestine organoid, bile acid in culture medium; details: compared with DMSO control
Experimental: as §1

| fluorescence of DHE (reactive oxygen species formation) (liver organoid [2]; at higher concentrations) | fluorescence of mBCL (intracellular glutathione, GSH) (liver organoid [2]; at higher concentrations) | SMILES | cytotoxicity in the liver organoid (liver organoid [1]) | intracellular toxicity and damage of the liver organoid (liver organoid [2]) | albumin gene expression (albumin gene) | expression level of CYP7A1 (CYP7A1; liver organoid co-cultured with intestine organoid) | expression level of CYP7A1 (CYP7A1; liver organoid cultured alone) |
| --- | --- | --- | --- | --- | --- | --- | --- |
| higher | lower | CC(=O)Nc1ccc(O)cc1 [APAP, acetaminophen] | increased as the drug concentration increased | increased with an increasing concentration |  |  |  |
|  |  | C[C@H](CCC(=O)O)[C@H]1CC[C@H]2[C@@H]3[C@H](O)C[C@@H]4C[C@H](O)CC[C@]4(C)[C@H]3CC[C@]12C [CDCA, chenodeoxycholic acid] |  |  | no difference in all conditions | a decrease | no difference |
